Patent US8252781B2, “1,2-diazetidin-3-one derivatives and drugs containing same” (Kowa Company, Ltd., priority 2008, dated 2012)
Where two headings read alike, the source gives them in different places.

Key:
[1] = target: T1, human 11β-HSD1 (Homo sapiens, UniProt P28845); experiment: Enzyme inhibitory activity, human 11β-HSD1 (lysate of stably expressing HEK293 cells, cortisol by competitive ELISA); format: biochemical; details: human 11β-HSD1, cell lysate, 37° C. for 1 hour, read-out: h HSD1 in vitro assay (IC50 uM)
T1 construct: The obtained PCR products of about 0.9 kbp, 1.2 kbp, and 0.9 kbp were subcloned into an expression vector pcDNA3.1+/Zeo; expressed in transfected cells
In short: (§1)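 Sonicated lysates of stably transfected cells (diluted to 0.1–0.4 mg/mL before addition) reacted for 1 h at 37 °C in pH 7.4 Tris/sucrose/EGTA/EDTA/MgCl2 buffer with 100 nmol/L cortisone or cortisol and 400 μmol/L NADPH or NAD+, then were heat-stopped at 95 °C. Inhibition rate = 100 minus residual activity.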

[2] = target: T2, mouse 11β-HSD1 (Mus musculus, UniProt P50172); experiment: Enzyme inhibitory activity, mouse 11β-HSD1 (lysate of stably expressing CHO-K1 cells, cortisol by competitive ELISA); format: biochemical; details: Table 2; mouse 11β-HSD1, cell lysate, 37° C. for 1 hour; read-out: m HSD1 in vitro assay (IC50 uM)
T2 construct: The obtained PCR products of about 0.9 kbp, 1.2 kbp, and 0.9 kbp were subcloned into an expression vector pcDNA3.1+/Zeo; expressed in transfected cells
In short: as §1

T1 sequence (P28845 whole entry): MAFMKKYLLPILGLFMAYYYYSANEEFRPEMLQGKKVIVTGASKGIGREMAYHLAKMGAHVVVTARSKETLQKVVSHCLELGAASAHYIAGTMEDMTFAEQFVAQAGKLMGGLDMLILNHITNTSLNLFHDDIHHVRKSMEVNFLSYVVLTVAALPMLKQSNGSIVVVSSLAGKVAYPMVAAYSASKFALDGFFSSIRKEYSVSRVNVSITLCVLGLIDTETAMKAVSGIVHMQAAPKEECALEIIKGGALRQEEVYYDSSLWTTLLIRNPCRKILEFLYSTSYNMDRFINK
T2 sequence (P50172 whole entry): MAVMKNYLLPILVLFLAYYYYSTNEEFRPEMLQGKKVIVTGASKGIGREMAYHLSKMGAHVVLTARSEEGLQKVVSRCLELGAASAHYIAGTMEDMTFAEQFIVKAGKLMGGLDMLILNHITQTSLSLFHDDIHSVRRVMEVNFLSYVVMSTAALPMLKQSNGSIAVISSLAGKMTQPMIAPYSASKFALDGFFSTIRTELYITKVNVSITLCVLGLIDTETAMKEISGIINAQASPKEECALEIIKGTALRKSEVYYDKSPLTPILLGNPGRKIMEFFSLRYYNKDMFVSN

IC50 ([1]; Table 1) | IC50 [2] | IC50 ([1]; Table 2) | SMILES
0.52 µM | 0.16 µM | – | Cc1ccc(C(=O)N2N(C3C4CC5CC(C4)CC3C5)C(=O)C2(C)C)c(C)c1 (stereo not drawn) [Example 160, 1-[(2,4-dimethylphenyl)carbonyl]-4,4-dimethyl-2-(adamantan-2-yl)-1,2-diazetidin-3-one]
– | 0.76 µM | 0.057 µM | CC1(C)C(=O)N(C2C3CC4CC(C3)CC2C4)N1c1ccc(N)cc1 (stereo not drawn) [Example 183, 1-(4-aminophenyl)-4,4-dimethyl-2-(adamantan-2-yl)-1,2-diazetidin-3-one]
– | 0.03 µM | 0.49 µM | Cc1ccccc1N1N(C2C3CC4CC(C3)CC2C4)C(=O)C1(C)C (stereo not drawn) [Example 192, 4,4-dimethyl-1-(2-methylphenyl)-2-(adamantan-2-yl)-1,2-diazetidin-3-one]
– | 0.36 µM | 0.86 µM | Cc1cccc(N2N(C3C4CC5CC(C4)CC3C5)C(=O)C2(C)C)c1 (stereo not drawn) [Example 193, 4,4-dimethyl-1-(3-methylphenyl)-2-(adamantan-2-yl)-1,2-diazetidin-3-one]
0.16 µM | 0.42 µM | – | COc1cccc(N2N(C3C4CC5CC(C4)CC3C5)C(=O)C2(C)C)c1 (stereo not drawn) [Example 204, 1-(3-methoxyphenyl)-4,4-dimethyl-2-(adamantan-2-yl)-1,2-diazetidin-3-one]
0.1 µM | 0.2 µM | – | COc1ccccc1N1N(C2C3CC4CC(C3)CC2C4)C(=O)C1(C)C (stereo not drawn) [Example 205, 1-(2-methoxyphenyl)-4,4-dimethyl-2-(adamantan-2-yl)-1,2-diazetidin-3-one]
– | 0.054 µM | 0.61 µM | Cc1cccc(N2N(C3C4CC5CC(C4)CC3C5)C(=O)C2(C)C)c1C (stereo not drawn) [Example 207, 1-(2,3-dimethylphenyl)-4,4-dimethyl-2-(adamantan-2-yl)-1,2-diazetidin-3-one]
– | 0.16 µM | 0.44 µM | CC1(C)C(=O)N(C2C3CC4CC(C3)CC2C4)N1c1csc2ccccc12 (stereo not drawn) [Example 210, 1-(1-benzothiophen-3-yl)-4,4-dimethyl-2-(adamantan-2-yl)-1,2-diazetidin-3-one]
– | 0.23 µM | 0.56 µM | CC1(C)C(=O)N(C2C3CC4CC(C3)CC2C4)N1c1ccccc1O (stereo not drawn) [Example 219, 1-(2-hydroxyphenyl)-4,4-dimethyl-2-(adamantan-2-yl)-1,2-diazetidin-3-one]
0.056 µM | 0.088 µM | – | COc1ccccc1N1N(C2CCCCCCC2)C(=O)C1(C)C [Example 220, 2-cyclooctyl-1-(2-methoxyphenyl)-4,4-dimethyl-1,2-diazetidin-3-one]
0.044 µM | 0.34 µM | – | CC1(C)C(=O)N(C2CC3CCC2C3)N1c1cccc(Cl)c1Cl (stereo not drawn) [Example 224, 2-(bicyclo[2.2.1]heptan-2-yl)-1-(2,3-dichlorophenyl)-4,4-dimethyl-1,2-diazetidin-3-one]
– | 0.27 µM | 0.18 µM | CC1(C)C(=O)N([C@H]2C3CC4CC2C[C@](O)(C4)C3)N1c1ccccc1O [Example 233, trans-1-(2-hydroxyphenyl)-2-(5-hydroxyadamantan-2-yl)-4,4-dimethyl-1,2-diazetidin-3-one]
– | 0.75 µM | 0.056 µM | CC1(C)C(=O)N([C@H]2C3CC4CC2C[C@](O)(C4)C3)N1c1ccc(N)cc1 [Example 235, trans-1-(4-aminophenyl)-2-(5-hydroxyadamantan-2-yl)-4,4-dimethyl-1,2-diazetidin-3-one]
0.095 µM | 0.31 µM | – | CC1(C)C(=O)N([C@H]2C3CC4CC2C[C@](O)(C4)C3)N1c1cccc2ccccc12 [Example 236, trans-2-(5-hydroxyadamantan-2-yl)-4,4-dimethyl-1-(naphthalen-1-yl)-1,2-diazetidin-3-one]

SMILES | IC50 ([1]; Table 1) | IC50 [2] | IC50 ([1]; Table 2)
CC1(C)C(=O)N(C2CC3CCC2C3)N1c1cccc2ccccc12 (stereo not drawn) [Example 225, 2-(bicyclo[2.2.1]heptan-2-yl)-4,4-dimethyl-1-(naphthalen-1-yl)-1,2-diazetidin-3-one] | 0.036 µM | 0.012 µM | –
